{"source": "ChEMBL document CHEMBL3046939", "about": "“Design, synthesis, and anti-allergic activities of novel (R)(-)-1-[(4-chlorophenyl)phenyl methyl]piperazine derivatives” (2012)", "type_in_all_cases": "functional", "key": {"[1]": {"tested_on": "Cavia porcellus", "assay": "Antipruritic activity in Cavia porcellus (guinea pig) histamine phosphate-induced itching model assessed as increase of total amount of histamine phosphate level at 50 mg/kg, administered 1 hr before histamine phosphate challenge with food relative to levocetirizine"}, "[2]": {"tested_on": "Cavia porcellus", "assay": "Antipruritic activity in Cavia porcellus (guinea pig) histamine phosphate-induced itching model assessed as increase of total amount of histamine phosphate level at 50 mg/kg, administered 1 hr before histamine phosphate challenge with food relative to control"}, "[3]": {"tested_on": "Cavia porcellus", "assay": "Antiasthmatic activity in Cavia porcellus (guinea pig) histamine phosphate-induced asthmatic model assessed as latent period of asthma at 50 mg/kg, administered 1 hr before histamine phosphate challenge with food (reference value: 115.4 +/- 126.2 /s)"}}, "data": [{"smiles": "Nc1ccc(S(=O)(=O)NCCN2CCN([C@H](c3ccccc3)c3ccc(Cl)cc3)CC2)cc1", "values": [{"measurement": "Activity", "setting": "[1]", "result": 2.55, "unit": "%"}, {"measurement": "Activity", "setting": "[2]", "result": 395.87, "unit": "%"}, {"measurement": "Time", "setting": "[3]", "result": 266.2, "unit": "s"}]}, {"smiles": "COc1ccc(NS(=O)(=O)c2ccc(NCCCN3CCN([C@H](c4ccccc4)c4ccc(Cl)cc4)CC3)cc2)nn1", "values": [{"measurement": "Activity", "setting": "[1]", "result": 43.42, "unit": "%"}, {"measurement": "Activity", "setting": "[2]", "result": 593.5, "unit": "%"}, {"measurement": "Time", "setting": "[3]", "result": 295.6, "unit": "s"}]}, {"smiles": "Nc1ccc(S(=O)(=O)N(CCCN2CCN([C@H](c3ccccc3)c3ccc(Cl)cc3)CC2)c2nccs2)cc1", "values": [{"measurement": "Activity", "setting": "[1]", "result": 2.44, "unit": "%"}, {"measurement": "Activity", "setting": "[2]", "result": 395.34, "unit": "%"}, {"measurement": "Time", "setting": "[3]", "result": 240.3, "unit": "s"}]}, {"smiles": "O=S(=O)(Nc1ccc(Cl)nn1)c1ccc(NCCCN2CCN([C@H](c3ccccc3)c3ccc(Cl)cc3)CC2)cc1", "values": [{"measurement": "Activity", "setting": "[1]", "result": 82.74, "unit": "%"}, {"measurement": "Activity", "setting": "[2]", "result": 783.62, "unit": "%"}, {"measurement": "Time", "setting": "[3]", "result": 184.1, "unit": "s"}]}, {"smiles": "COc1ccc(N(CCN2CCN([C@H](c3ccccc3)c3ccc(Cl)cc3)CC2)S(=O)(=O)c2ccc(N)cc2)nn1", "values": [{"measurement": "Activity", "setting": "[1]", "result": 62.62, "unit": "%"}, {"measurement": "Activity", "setting": "[2]", "result": 686.34, "unit": "%"}, {"measurement": "Time", "setting": "[3]", "result": 288, "unit": "s"}]}, {"smiles": "O=S(=O)(Nc1ncccn1)c1ccc(NCCCN2CCN([C@H](c3ccccc3)c3ccc(Cl)cc3)CC2)cc1", "values": [{"measurement": "Activity", "setting": "[1]", "result": 39.93, "unit": "%"}, {"measurement": "Activity", "setting": "[2]", "result": 576.61, "unit": "%"}, {"measurement": "Time", "setting": "[3]", "result": 229.2, "unit": "s"}]}, {"smiles": "Nc1ccc(S(=O)(=O)N(CCCN2CCN([C@H](c3ccccc3)c3ccc(Cl)cc3)CC2)c2ccc(Cl)nn2)cc1", "values": [{"measurement": "Activity", "setting": "[1]", "result": 10.1, "unit": "%"}, {"measurement": "Activity", "setting": "[2]", "result": 432.37, "unit": "%"}, {"measurement": "Time", "setting": "[3]", "result": 301.8, "unit": "s"}]}, {"smiles": "Cc1cc(C)nc(NS(=O)(=O)c2ccc(NCCCN3CCN([C@H](c4ccccc4)c4ccc(Cl)cc4)CC3)cc2)n1", "values": [{"measurement": "Activity", "setting": "[1]", "result": -0.15, "unit": "%"}, {"measurement": "Activity", "setting": "[2]", "result": 382.83, "unit": "%"}, {"measurement": "Time", "setting": "[3]", "result": 136.8, "unit": "s"}]}, {"smiles": "O=S(=O)(Nc1nccs1)c1ccc(NCCN2CCN([C@H](c3ccccc3)c3ccc(Cl)cc3)CC2)cc1", "values": [{"measurement": "Activity", "setting": "[1]", "result": -18.8, "unit": "%"}, {"measurement": "Activity", "setting": "[2]", "result": 292.61, "unit": "%"}, {"measurement": "Time", "setting": "[3]", "result": 360, "unit": "s"}]}, {"smiles": "O=S(=O)(Nc1ncccn1)c1ccc(NCCN2CCN([C@H](c3ccccc3)c3ccc(Cl)cc3)CC2)cc1", "values": [{"measurement": "Activity", "setting": "[1]", "result": 217.8, "unit": "%"}, {"measurement": "Activity", "setting": "[2]", "result": 1436.72, "unit": "%"}, {"measurement": "Time", "setting": "[3]", "result": 246.4, "unit": "s"}]}, {"smiles": "O=S(=O)(Nc1nccs1)c1ccc(NCCCN2CCN([C@H](c3ccccc3)c3ccc(Cl)cc3)CC2)cc1", "values": [{"measurement": "Activity", "setting": "[1]", "result": -18.04, "unit": "%"}, {"measurement": "Activity", "setting": "[2]", "result": 296.34, "unit": "%"}, {"measurement": "Time", "setting": "[3]", "result": 324.8, "unit": "s"}]}, {"smiles": "O=C(O)CNCCCN1CCN([C@H](c2ccccc2)c2ccc(Cl)cc2)CC1", "values": [{"measurement": "Activity", "setting": "[1]", "result": 22.71, "unit": "%"}, {"measurement": "Activity", "setting": "[2]", "result": 493.36, "unit": "%"}, {"measurement": "Time", "setting": "[3]", "result": 360, "unit": "s"}]}, {"smiles": "C[C@H](NCCCN1CCN([C@H](c2ccccc2)c2ccc(Cl)cc2)CC1)C(=O)O", "values": [{"measurement": "Activity", "setting": "[1]", "result": 113.8, "unit": "%"}, {"measurement": "Activity", "setting": "[2]", "result": 933.8, "unit": "%"}, {"measurement": "Time", "setting": "[3]", "result": 307.6, "unit": "s"}]}, {"smiles": "COc1ccc(NS(=O)(=O)c2ccc(NCCN3CCN([C@H](c4ccccc4)c4ccc(Cl)cc4)CC3)cc2)nn1", "values": [{"measurement": "Activity", "setting": "[1]", "result": -21.49, "unit": "%"}, {"measurement": "Activity", "setting": "[2]", "result": 279.65, "unit": "%"}, {"measurement": "Time", "setting": "[3]", "result": 360, "unit": "s"}]}, {"smiles": "Nc1ccc(S(=O)(=O)NCCCN2CCN([C@H](c3ccccc3)c3ccc(Cl)cc3)CC2)cc1", "values": [{"measurement": "Activity", "setting": "[1]", "result": 107.15, "unit": "%"}, {"measurement": "Activity", "setting": "[2]", "result": 901.67, "unit": "%"}, {"measurement": "Time", "setting": "[3]", "result": 269.4, "unit": "s"}]}, {"smiles": "Nc1ccc(S(=O)(=O)N(CCN2CCN([C@H](c3ccccc3)c3ccc(Cl)cc3)CC2)c2nccs2)cc1", "values": [{"measurement": "Activity", "setting": "[1]", "result": 9.4, "unit": "%"}, {"measurement": "Activity", "setting": "[2]", "result": 429.01, "unit": "%"}, {"measurement": "Time", "setting": "[3]", "result": 184.8, "unit": "s"}]}, {"smiles": "O=S(=O)(Nc1ccc(Cl)nn1)c1ccc(NCCN2CCN([C@H](c3ccccc3)c3ccc(Cl)cc3)CC2)cc1", "values": [{"measurement": "Activity", "setting": "[1]", "result": 103.46, "unit": "%"}, {"measurement": "Activity", "setting": "[2]", "result": 883.81, "unit": "%"}, {"measurement": "Time", "setting": "[3]", "result": 255.5, "unit": "s"}]}, {"smiles": "Nc1ccc(S(=O)(=O)N(CCN2CCN([C@H](c3ccccc3)c3ccc(Cl)cc3)CC2)c2ccc(Cl)nn2)cc1", "values": [{"measurement": "Activity", "setting": "[1]", "result": -78, "unit": "%"}, {"measurement": "Activity", "setting": "[2]", "result": 6.4, "unit": "%"}, {"measurement": "Time", "setting": "[3]", "result": 151.2, "unit": "s"}]}, {"smiles": "Cc1cc(C)nc(NS(=O)(=O)c2ccc(NCCN3CCN([C@H](c4ccccc4)c4ccc(Cl)cc4)CC3)cc2)n1", "values": [{"measurement": "Activity", "setting": "[1]", "result": -60.28, "unit": "%"}, {"measurement": "Activity", "setting": "[2]", "result": 92.07, "unit": "%"}, {"measurement": "Time", "setting": "[3]", "result": 167.4, "unit": "s"}]}]}
